Assays:
[1] = test system: LPS triggered IL-10 secretion in monocyte-derived macrophages (MdM); experiment: MdM assay: LPS-triggered IL-10 (ELISA); format: cell-based, human; details: LPS 200 ng/mL, supernatant after 2 h, maximal fold change vs LPS only
Protocol: SIK inhibition inhibits TNFα and increases IL-10 release in LPS triggered monocyte-derived macrophages (MdM) and dendritic […] al. 2012; Sundberg et al. 2014; Ozanne et al. 2015). This assay evaluates illustrative compounds of the invention for their inhibition of LPS-induced TNFα and LPS triggered IL-10 secretion in monocyte-derived macrophages. PBMCs are isolated from human blood samples (buffycoats). The buffy coat is aseptically transferred into a 50 mL Falcon tube, and diluted 1/2 in PBS. Falcon tubes are filled with 20 mL LymphoprepTM, on top of which 25 mL of the buffy coat is carefully added, tubes are centrifuged for 35 min at 400 g in temperature controlled centrifuge, without brake, at 25° C. PBMCs are aspirated from the white interface layer between sample and LymphoprepTM. PBMCs are washed five times in PBS. Cells are resuspended in RPMI 1640 complete medium supplemented with 10% FBS, 1% P/S, and cell density is determined using a hematologic analyzer (Sysmex XS-500i). PBMCs are centrifuged at 300×g for 10 min and resuspended at a density of 1.0*10^7 cells/80 μL Miltenyi buffer (PBS, pH 7.4, 1% FBS, 2 mM EDTA). Starting from this point of the protocol all steps are performed on ice. 20 μL of CD14+ micro-beads are added per 1.0*10^7 cells, the tube is mixed and incubated for 15 min in the fridge at 4° C. Cell suspension volume is adjusted to total volume of 100 mL using Miltenyi buffer, mixed gently and subsequently centrifuged for 10 min at 300×g. Supernantant is discarded and cell pellet is resuspended in 12 mL of Miltenyi buffer. Four LS columns are placed in the MACS Separator (magnet) from Miltenyi Biotec, and are prewet by rinsing with 3 mL of MACS buffer per column. Three mL of cell suspension is added onto the column (max 1*10^8 of labelled cells/column), and columns are subsequently washed 3 times with 3 mL of Miltenyi buffer. The columns are removed from the magnets, and 5 mL of Miltenyi buffer are added to the column to flush out the CD14+ fraction by pushing the plunger into the column. The flushed fractions are collected in a fresh 50 mL Falcon and volume is adjusted to 30 mL using Miltenyi buffer, cells are centrifuged for 10 min at 300×g. The obtained cell pellet is resuspended in 10 mL RPMI w/o FBS, and cell density is determined using a hematologic analyser (Sysmex XS-500i). 100 000 cells are seeded per well of a 96-well plate for differentiation to MdM in RPMI 1640 medium supplemented with 10% FBS, 1% P/S and 100 ng/mL rhM-CSF. On day 5 the medium is refreshed with 100 μL RPMI 1640 medium supplemented with 10% FBS, 1% P/S and 100 ng/mL rhM-CSF. On day 10, MdMs are triggered and compound is added. A compound dilution plate is made in 100% DMSO by 3-fold dilution of 10 mM stock solution. An intermediate dilution plate (10× final concentration) is made by diluting the compound dilution plate 50-fold in RPMI medium. Medium is carefully removed from cell plates using multichannel pipette, and replaced by 80 μL fresh medium. 10 μL of the 10× final concentration compound is added to the cells and incubated for 1 hour at 37° C. before addition of trigger. No trigger conditions/trigger conditions are spiked with equal final DMSO concentrations of 0.2% DMSO. 10 μL of 10×LPS (final conc. 200 ng/mL) solution are added to all wells except for the 'no trigger wells' where 10 μL medium is added. Supernatant is collected after 2 h (IL-10 determination) and after 20 h (TNFα determination) of LPS triggering. […]

SIK2 = molecular target: T1, SIK2 (Homo sapiens, UniProt Q9H0K1); experiment: ADP-Glo kinase assay, SIK2; format: biochemical; details: ADP-Glo SIK kinase assay
T1 construct: purchased ThermoFisher Scientific PV4792
Summary of the method: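 ADP-Glo luminescent assay of ADP formed by SIK2 or SIK3 with substrate after ATP addition, 120 min at RT. Remaining ATP depleted 40 min, then ADP converted to ATP and read by luciferase luminescence after 30 min. Controls: 1% DMSO and 10 μM staurosporine (final).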

T1 sequence (Q9H0K1 whole entry): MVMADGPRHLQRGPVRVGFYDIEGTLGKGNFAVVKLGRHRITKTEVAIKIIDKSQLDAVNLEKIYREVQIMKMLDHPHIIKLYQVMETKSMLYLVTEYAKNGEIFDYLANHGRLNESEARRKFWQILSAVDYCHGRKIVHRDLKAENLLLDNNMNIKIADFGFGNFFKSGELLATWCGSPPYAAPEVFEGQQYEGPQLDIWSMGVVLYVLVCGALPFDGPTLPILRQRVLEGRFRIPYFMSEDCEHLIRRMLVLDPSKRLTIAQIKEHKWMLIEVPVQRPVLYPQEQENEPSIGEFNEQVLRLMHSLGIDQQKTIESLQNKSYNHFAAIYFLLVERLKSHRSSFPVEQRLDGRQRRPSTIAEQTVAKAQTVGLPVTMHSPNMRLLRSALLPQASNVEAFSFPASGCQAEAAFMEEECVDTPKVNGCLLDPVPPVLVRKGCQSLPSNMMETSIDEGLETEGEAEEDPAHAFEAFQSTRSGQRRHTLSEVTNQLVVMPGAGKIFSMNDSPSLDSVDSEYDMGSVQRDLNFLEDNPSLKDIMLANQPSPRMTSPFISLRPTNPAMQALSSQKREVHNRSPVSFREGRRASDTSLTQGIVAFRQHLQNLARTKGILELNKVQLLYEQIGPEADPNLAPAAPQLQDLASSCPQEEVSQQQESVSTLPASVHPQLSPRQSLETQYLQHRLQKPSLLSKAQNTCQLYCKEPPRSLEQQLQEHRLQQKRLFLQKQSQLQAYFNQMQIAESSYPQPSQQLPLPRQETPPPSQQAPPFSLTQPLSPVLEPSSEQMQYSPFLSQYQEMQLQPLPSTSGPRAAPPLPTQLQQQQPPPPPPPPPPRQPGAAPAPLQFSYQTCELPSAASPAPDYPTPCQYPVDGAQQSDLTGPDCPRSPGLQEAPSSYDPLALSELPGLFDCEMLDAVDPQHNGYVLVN

| SMILES | IC50 (SIK2) [nM] | IL-10 FCmax median [1] |
| --- | --- | --- |
| COc1cc(-c2cnc3cc(OC(C)C(F)(F)F)ccn23)cc(OC(F)F)c1C(=O)NC1CC1 (stereo not shown) [compound 45, N-cyclopropyl-2-(difluoromethoxy)-6-methoxy-4-[7-(2,2,2-trifluoro-1-methyl-ethoxy)imidazo[1,2-a]pyridin-3-yl]benzamide] | 10 to 100 | + (≤1.5) |
| COc1cc(-c2cnc3cc(OCCN4CCCCC4)ccn23)cc(OC(F)F)c1C(=O)NC1CC1 [compound 10, N-cyclopropyl-2-(difluoromethoxy)-6-methoxy-4-[7-[2-(1-piperidyl)ethoxy]imidazo [1,2-a]pyridin-3-yl]benzamide] | 0.01 to 10 | ++ (>1.5-4.5) |
| CCN(CC)CCOc1ccn2c(-c3cc4c(c(OC)c3)C(=O)N(CC(F)(F)F)CC4)cnc2c1 [compound 128, 6-[7-[2-(diethylamino)ethoxy]imidazo[1,2-a]pyridin-3-yl]-8-methoxy-2-(2,2,2-trifluoroethyl)-3,4-dihydroisoquinolin-1-one] | 0.01 to 10 | ++ (>1.5-4.5) |
| CCNCCOc1ccn2c(-c3cc(OC)c(C(=O)NC4CC4)c(OC(F)F)c3)cnc2c1 [compound 37, N-cyclopropyl-2-(difluoromethoxy)-4-[7-[2-(ethylamino)ethoxy]imidazo[1,2-a]pyridin-3-yl]-6-methoxy-benzamide] | 0.01 to 10 | ++ (>1.5-4.5) |
| COc1cc(-c2cnc3cc(OCCC4CCCN4C)ccn23)cc2c1C(=O)N(CC(F)(F)F)CC2 (stereo not shown) [Cpd 122, 8-methoxy-6-[7-[2-(1-methylpyrrolidin-2-yl)ethoxy]imidazo[1,2-a]pyridin-3-yl]-2-(2,2,2-trifluoroethyl)-3,4-dihydroisoquinolin-1-one] | 0.01 to 10 | ++ (>1.5-4.5) |
| COc1cc(-c2cnc3cc(OCC4CN(C)C4)ccn23)cc2c1C(=O)N(CC(F)(F)F)CC2 [compound 39, 8-methoxy-6-[7-[(1-methylazetidin-3-yl)methoxy]imidazo[1,2-a]pyridin-3-yl]-2-(2,2,2-trifluoroethyl)-3,4-dihydro isoquinolin-1-one] | 0.01 to 10 | ++ (>1.5-4.5) |

Continued, in another order:

| IC50 (SIK2) [nM] | SMILES | IL-10 FCmax median [1] |
| --- | --- | --- |
| 0.01 to 10 | CN(C)CCOc1ccn2c(-c3cc(OC(F)F)c(C(=O)NC4CC4)c(OC(F)F)c3)cnc2c1 [compound 156, N-cyclopropyl-2,6-bis(difluoromethoxy)-4-[7-[2-(dimethylamino)ethoxy]imidazo[1,2-a]pyridin-3-yl]benzamide] | ++ (>1.5-4.5) |
| 0.01 to 10 | COc1cc(-c2cnc3cc(OCCN4CCOC[C@@H]4C)ccn23)cc(OC(F)F)c1C(=O)NC1CC1 [compound 233, N-cyclopropyl-2-(difluoromethoxy)-6-methoxy-4-[7-[2-[(3S)-3-methylmorpholin-4-yl]ethoxy]imidazo[1,2-a]pyridin-3-yl]benzamide] | ++ (>1.5-4.5) |
| 0.01 to 10 | COc1cc(-c2cnc3cc(OCc4nncn4C)ccn23)cc(OC(F)F)c1C(=O)NC1CC1 [compound 227, N-cyclopropyl-2-(difluoromethoxy)-6-methoxy-4-[7-[(4-methyl-1,2,4-triazol-3-yl)methoxy]imidazo[1,2-a]pyridin-3-yl]benzamide] | ++ (>1.5-4.5) |
| 0.01 to 10 | COc1cc(-c2cnc3cc(OCC(O)CN4CCOCC4)ccn23)cc(OC(F)F)c1C(=O)NC1CC1 (stereo not shown) [Cpd 330, N-cyclopropyl-2-(difluoromethoxy)-4-[7-(2-hydroxy-3-morpholino-propoxy)imidazo[1,2-a]pyridin-3-yl]-6-methoxy-benzamide] | ++ (>1.5-4.5) |
| 0.01 to 10 | COc1cc(-c2cnc3cc(OCc4cnco4)ccn23)cc2c1C(=O)N(CC(F)(F)F)CC2 [compound 126, 8-methoxy-6-[7-(oxazol-5-ylmethoxy)imidazo[1,2-a]pyridin-3-yl]-2-(2,2,2-trifluoroethyl)-3,4-dihydroisoquinolin-1-one] | + (≤1.5) |

From patent US12264156B2, “Compounds and pharmaceutical compositions thereof for the treatment of diseases” (GALAPAGOS NV, priority 2018, dated 2025)
